From patent publication US20110045101A1, “FUNGICIDAL SUBSTITUTED AZOLES” (E.I. Du Pont De Nemours and Company, priority 2009, published 2011)

Experiments:
Type in all cases: in vivo
[1] = system: Erysiphe graminis f. sp. tritici; assay: Test J: wheat powdery mildew on wheat seedlings, sprayed the day before inoculation, visual disease rating; conditions: 100 = 100% disease control; for pest or weed control at 200 ppm / pest or weed control at 40 ppm: Blumeria graminis, 168 h; for pest or weed control at 200 ppm: 0 = no control relative to controls; for pest or weed control at 40 ppm: 40 ppm (marked *); for pest or weed control at 200 ppm / Test J disease control rating: 200 ppm; for Test J disease control rating: 0 = no control
Method in brief: (§1)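 200 ppm run-off spray (500 g/ha equivalent); * = 40 ppm. Vehicle: acetone/water 50/50, 250 ppm Trem® 014.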

Septoria tritici = assay: Test G: wheat leaf blotch on wheat seedlings, sprayed the day before inoculation, visual disease rating; conditions: 100 = 100% disease control; for pest or weed control at 200 ppm / pest or weed control at 40 ppm: Zymoseptoria tritici, 504 h; for pest or weed control at 200 ppm: 0 = no control relative to controls; for pest or weed control at 40 ppm: 40 ppm (marked *); for pest or weed control at 200 ppm / Test G disease control rating: 200 ppm; for Test G disease control rating: 0 = no control
Method in brief: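 Wheat seedlings were sprayed to run-off with test suspension (acetone/water plus surfactant), generally 200 ppm (≈500 g/ha), or 40 ppm where marked. Septoria tritici spores were inoculated the next day; plants were held 48 h at 24°C in saturated atmosphere, then 19 days at 20°C before visual disease rating.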

Botrytis cinerea = assay: Test C: tomato Botrytis on tomato seedlings, sprayed the day before inoculation, visual disease rating; conditions: 100 = 100% disease control; for pest or weed control at 200 ppm / pest or weed control at 40 ppm: Botrytis cinerea, 120 h; for pest or weed control at 200 ppm: 0 = no control relative to controls; for pest or weed control at 40 ppm: 40 ppm (marked *); for pest or weed control at 200 ppm / Test C disease control rating: 200 ppm; for Test C disease control rating: 0 = no control
Method in brief: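 Tomato seedlings were sprayed until run-off with test suspensions in acetone/water (50/50) carrying 250 ppm polyhydric alcohol ester surfactant. Standard dose was 200 ppm, with 40 ppm for marked entries.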

Septoria nodorum = assay: Test F: wheat glume blotch on wheat seedlings, sprayed the day before inoculation, visual disease rating; conditions: 100 = 100% disease control; for pest or weed control at 200 ppm / pest or weed control at 40 ppm: Parastagonospora nodorum, 264 h; for pest or weed control at 200 ppm: 0 = no control relative to controls; for pest or weed control at 40 ppm: 40 ppm (marked *); for pest or weed control at 200 ppm / Test F disease control rating: 200 ppm; for Test F disease control rating: 0 = no control
Method in brief: as §1

Alternaria solani = assay: Test D: tomato early blight, sprayed the day before inoculation, visual disease rating; conditions: 100 = 100% disease control; for pest or weed control at 200 ppm / pest or weed control at 40 ppm: Alternaria solani, 168 h; for pest or weed control at 200 ppm: 0 = no control relative to controls; for pest or weed control at 40 ppm: 40 ppm (marked *); for pest or weed control at 200 ppm / Test D disease control rating: 200 ppm; for Test D disease control rating: 0 = no control
Method in brief: as §1

[2] = system: Puccinia recondita f. sp. tritici; assay: Test I: wheat leaf rust on wheat seedlings, sprayed the day before inoculation, visual disease rating; conditions: 100 = 100% disease control; for pest or weed control at 200 ppm / pest or weed control at 40 ppm: Puccinia recondita, 168 h; for pest or weed control at 200 ppm: 0 = no control relative to controls; for pest or weed control at 40 ppm: 40 ppm (marked *); for pest or weed control at 200 ppm / Test I disease control rating: 200 ppm; for Test I disease control rating: 0 = no control
Method in brief: as §1

[3] = system: Puccinia recondita f. sp. tritici; assay: Test H: wheat leaf rust, test suspension sprayed after inoculation of wheat seedlings, visual disease rating; conditions: 100 = 100% disease control; for pest or weed control at 200 ppm / pest or weed control at 40 ppm: Puccinia recondita, 96 h; for pest or weed control at 200 ppm: 0 = no control relative to controls; for pest or weed control at 40 ppm: 40 ppm (marked *); for pest or weed control at 200 ppm / Test H disease control rating: 200 ppm; for Test H disease control rating: 0 = no control
From the text: General protocol for preparing test suspensions for Tests A-J: The test compounds were first dissolved in acetone in an amount equal to 3% of the final volume and then suspended at the desired concentration (in ppm) in acetone and purified water (50/50 mix) containing 250 ppm of the surfactant Trem® 014 (polyhydric alcohol esters). The resulting test suspensions were then used in tests A-J. Spraying a 200 ppm test suspension to the point of run-off on the test plants was the equivalent of a rate of 500 g/ha. […] Wheat seedlings were inoculated with a spore suspension of Puccinia recondita f. sp. tritici (the causal agent of wheat leaf rust) and incubated in a saturated atmosphere at 20° C. for 24 h, and then moved to a growth chamber at 20° C. for 2 days. […] A dash (-) indicates no test results. All results are for 200 ppm except where followed by “*”, which indicates 40 ppm.

Row | Structure (SMILES) | Test J disease control rating [1] [%] | Test G disease control rating (Septoria tritici) [%] | Test C disease control rating (Botrytis cinerea) [%] | Test F disease control rating (Septoria nodorum) [%] | Test D disease control rating (Alternaria solani) [%] | Test I disease control rating [2] [%] | Test H disease control rating [3] [%] | also measured
1 | COc1cc(OC)cc(-n2cnc(C)c2-c2c(F)cc(OC)cc2F)c1 [Compound 632, 5-(2,6-difluoro-4-methoxyphenyl)-1-(3,5-dimethoxyphenyl)-4-methyl-1H-imidazole] | – | – | – | – | – | – | – | pest or weed control at 200 ppm [1]: 97%; pest or weed control at 200 ppm (Septoria tritici): 98%; pest or weed control at 200 ppm (Botrytis cinerea): 99%; pest or weed control at 200 ppm (Septoria nodorum): 0%; pest or weed control at 200 ppm (Alternaria solani): 100%; pest or weed control at 200 ppm [2]: 100%; pest or weed control at 200 ppm [3]: 99%
2 | COc1cc(F)c(-n2cnc(C)c2-c2ccc(Cl)nc2)c(F)c1 [Compound 685, 2-chloro-5-[1-(2,6-difluoro-4-methoxyphenyl)-4-methyl-1H-imidazol-5-yl]pyridine] | – | – | – | – | – | – | – | pest or weed control at 40 ppm [1]: 64%; pest or weed control at 40 ppm (Septoria tritici): 87%; pest or weed control at 40 ppm (Botrytis cinerea): 100%; pest or weed control at 40 ppm (Septoria nodorum): 0%; pest or weed control at 40 ppm (Alternaria solani): 99%; pest or weed control at 40 ppm [2]: 68%; pest or weed control at 40 ppm [3]: 0%
3 | COc1cc(OC)cc(-n2c(Cl)nc(C)c2-c2c(F)cc(OC)cc2F)c1 [Compound 694, 2-chloro-5-(2,6-difluoro-4-methoxyphenyl)-1-(3,5-dimethoxyphenyl)-4-methyl-1H-imidazole] | – | – | – | – | – | – | – | pest or weed control at 40 ppm [1]: 98%; pest or weed control at 40 ppm (Septoria tritici): 98%; pest or weed control at 40 ppm (Botrytis cinerea): 100%; pest or weed control at 40 ppm (Septoria nodorum): 99%; pest or weed control at 40 ppm (Alternaria solani): 100%; pest or weed control at 40 ppm [2]: 99%; pest or weed control at 40 ppm [3]: 0%
4 | COc1cc(F)c(-n2c(Cl)nc(C)c2-c2ccc(Cl)nc2)c(F)c1 [Compound 696, 2-chloro-5-[2-chloro-1-(2,6-difluoro-4-methoxyphenyl)-4-methyl-1H-imidazol-5-yl]pyridine] | – | – | – | – | – | – | – | pest or weed control at 40 ppm [1]: 100%; pest or weed control at 40 ppm (Septoria tritici): 99%; pest or weed control at 40 ppm (Botrytis cinerea): 100%; pest or weed control at 40 ppm (Septoria nodorum): 100%; pest or weed control at 40 ppm (Alternaria solani): 100%; pest or weed control at 40 ppm [2]: 99%; pest or weed control at 40 ppm [3]: 99%
5 | COc1cc(F)c(-c2c(Cl)nc(Br)n2-c2ccc(C(F)(F)F)nc2)c(F)c1 [Compound 707, 5-[2-bromo-4-chloro-5-(2,6-difluoro-4-methoxyphenyl)-1H-imidazol-1-yl]-2-(trifluoromethyl)pyridine] | – | – | – | – | – | – | – | pest or weed control at 200 ppm [1]: 100%; pest or weed control at 200 ppm (Septoria tritici): 99%; pest or weed control at 200 ppm (Botrytis cinerea): 100%; pest or weed control at 200 ppm (Septoria nodorum): 100%; pest or weed control at 200 ppm (Alternaria solani): 100%; pest or weed control at 200 ppm [2]: 100%; pest or weed control at 200 ppm [3]: 67%
6 | COc1cc(F)c(-c2c(Cl)nc(C)n2-c2ccc(C(F)(F)F)nc2)c(F)c1 [Compound 713, 5-[4-chloro-5-(2,6-difluoro-4-methoxyphenyl)-2-methyl-1H-imidazol-1-yl]-2-(trifluoromethyl)pyridine] | – | – | – | – | – | – | – | pest or weed control at 200 ppm [1]: 100%; pest or weed control at 200 ppm (Septoria tritici): 100%; pest or weed control at 200 ppm (Botrytis cinerea): 100%; pest or weed control at 200 ppm (Septoria nodorum): 100%; pest or weed control at 200 ppm (Alternaria solani): 100%; pest or weed control at 200 ppm [2]: 100%; pest or weed control at 200 ppm [3]: 78%
7 | COc1cc(F)c(-c2c(N(C)C)ncn2Cc2ccc(Cl)cc2)c(F)c1 [compound 265] | 0 | 86 | 97 | 60 | 0 | 61 | 32 | –
8 | Fc1ccc(F)c(-c2c(Cl)ncn2Cc2ccc(Cl)cc2)c1F [compound 266] | 99 | 94 | 100 | 97 | 100 | 99 | 98 | –
9 | CN(C)c1ncn(Cc2ccc(Cl)cc2)c1-c1c(F)ccc(F)c1F [compound 267] | 97 | 91 | 98 | 0 | 0 | 86 | 9 | –
10 | COc1cc(F)c(-c2c(Cl)ncn2Cc2ccc(Cl)cc2)c(F)c1 [compound 268] | 75 | 87 | 99 | 98 | 100 | 99 | 63 | –
11 | COc1cc(F)c(-c2c(N(C)C)ncn2Cc2ccc(Cl)cc2)c(F)c1 [compound 269] | 0 | 83 | 100 | 87 | 0 | 9 | 9 | –
12 | COc1ccc(F)c(-c2c(Cl)ncn2Cc2ccc(Cl)cc2)c1F [compound 270] | 96 | 86 | 100 | 98 | 100 | 99 | 0 | –
13 | COc1ccc(F)c(-c2c(N(C)C)ncn2Cc2ccc(Cl)cc2)c1F [compound 271] | 0 | 82 | 99 | 0 | 9 | 83 | 0 | –
14 | Clc1ccc(-c2c(Cl)ncn2Cc2cccc(Cl)c2)cc1 [compound 272] | 0 | 91 | 64 | 0 | 0 | 55 | 17 | –
15 | CN(C)c1ncn(Cc2cccc(Cl)c2)c1-c1ccc(Cl)cc1 [compound 273] | 0 | 13 | 63 | 0 | 0 | 41 | 46 | –
16 | COc1cc(F)c(-c2c(Cl)ncn2Cc2ccc(C)cc2)c(F)c1 [compound 274] | 77 | 94 | 100 | 51 | 100 | 99 | 48 | –
17 | COc1cc(F)c(-c2c(N(C)C)ncn2Cc2ccc(C)cc2)c(F)c1 [compound 275] | 0 | 85 | 100 | 0 | 82 | 74 | 9 | –
18 | Cc1ccc(-n2c(Cl)nc(Cl)c2-c2ccc(F)cc2Cl)cc1 [compound 282] | 100 | 93 | 99 | 0 | 99 | 99 | 65 | –
19 | COc1cc(F)c(-c2c(Cl)nc(Br)n2Cc2ccc(Cl)cc2)c(F)c1 [compound 283] | 99 | 93 | 100 | 0 | 98 | 93 | 0 | –
20 | COc1cc(F)c(-c2c(Cl)nc(Cl)n2Cc2ccc(Cl)cc2)c(F)c1 [compound 284] | 100 | 95 | 100 | 92 | 99 | 99 | 6 | –
